From US20130261130A1, “NEUROTRYPSIN INHIBITORS” (priority 2010, published 2013)
Structures can show the parent of a compound that is named as a salt. Where two headings read alike, the source gives them in different places. Values belong to the compound of their own block, whether it stands above or below them.

Key:
[1] = Effect of compound on body weight in mice; format: in vivo, C57/BL6 mice; conditions: 25 mg/kg active ingredient, three intraperitoneal injections
Protocol: (§1) Adult (P50) C57/BL6 mice from Charles River were used for the experiments. All animal experiments are performed in accordance with international guidelines for proper conduct of animal experiment under jurisdiction of the Swiss law (Permit number ZH-18/2008). For every mouse in the experiment the well-being during the interventions is documented in a score sheet.
The mice are housed under optimal hygienic conditions (OHB) with controlled air-conditioning and lighting (temperature: 20-24° C., humidity: 55-65%, day/night cycle: 12 h/12 h, lights on 7 a.m.). Individually ventilated cages of type II, L (530 cm^2 floor space) with standard litter are used. A maximum of 6 mice is kept in each cage. Mice are fed with standard rodent chow (Extrudat, KLIBA NAFAG) ad libitum and have free access to drinking water. Animal colony is managed and maintained at BioSupport, Schlieren.
(§2) Example 119, mono-lysine salt, was prepared for the dosing as suspension in 20% DMSO, 80% PBS with a final concentration of 2.5 mg/ml active compound (corresponding to 3.13 mg/ml of the lysine salt). First, compound of Example 119, mono-lysine salt, was dissolved in DMSO at a concentration of 15.7 mg/ml. Then sterile PBS was added to get a final concentration of 3.13 mg/ml and the suspension was thoroughly vortexed. The suspension was kept at room temperature in the dark until used.
(§3) 5 adult mice were treated with 10 ml/kg of a 3.13 mg/ml suspension of Example 119, mono-lysine salt. This corresponds to a dose of 25 mg/kg active ingredient. As vehicle control 5 mice were treated with 10 ml/kg of 20% DMSO in PBS. Each mouse received three intraperitoneal injections. Between dose 1 and dose 2 there were 8 h, between dose 2 and dose 3 16 h. 5 h after the last injection the mice were euthanatized with CO2.
(§4) Before the first injection the mice were weighted and ˜100 μl of blood was collected from the lateral tail vein. Serum was prepared with centrifugation of blood samples in Microvette 500 Z-Gel tubes (10'000 g, 20° C., 5 min). […]

[2] = system: C-terminal agrin fragment (CAF); experiment: Analysis of serum CAF levels by western blotting; format: in vivo, C57/BL6 mice
Protocol: as §1, §2, §3
as §4, with “min). Supernatant was transferred to an Eppendorf reaction tube and centrifuged again (21'000 g, 20° C., 5 min). Supernatant was transferred to screw top reaction tubes and the serum was stored at −20° C. until analysis.” for “min).”
After staining for CAF the membrane was washed thoroughly and reused for a staining for endogenous mouse antibodies that served as loading control. […] After imaging with a Stella imaging system (Raytest) the intensity of the CAF bands was measured with AIDA picture analysis software (Raytest) and normalized to the loading levels determined from mouse antibody light chains. […]

human neurotrypsin = target: T1, human neurotrypsin (Homo sapiens, UniProt P56730); experiment: Determination of IC50 for human neurotrypsin; format: biochemical
T1 sequence (P56730 21-875): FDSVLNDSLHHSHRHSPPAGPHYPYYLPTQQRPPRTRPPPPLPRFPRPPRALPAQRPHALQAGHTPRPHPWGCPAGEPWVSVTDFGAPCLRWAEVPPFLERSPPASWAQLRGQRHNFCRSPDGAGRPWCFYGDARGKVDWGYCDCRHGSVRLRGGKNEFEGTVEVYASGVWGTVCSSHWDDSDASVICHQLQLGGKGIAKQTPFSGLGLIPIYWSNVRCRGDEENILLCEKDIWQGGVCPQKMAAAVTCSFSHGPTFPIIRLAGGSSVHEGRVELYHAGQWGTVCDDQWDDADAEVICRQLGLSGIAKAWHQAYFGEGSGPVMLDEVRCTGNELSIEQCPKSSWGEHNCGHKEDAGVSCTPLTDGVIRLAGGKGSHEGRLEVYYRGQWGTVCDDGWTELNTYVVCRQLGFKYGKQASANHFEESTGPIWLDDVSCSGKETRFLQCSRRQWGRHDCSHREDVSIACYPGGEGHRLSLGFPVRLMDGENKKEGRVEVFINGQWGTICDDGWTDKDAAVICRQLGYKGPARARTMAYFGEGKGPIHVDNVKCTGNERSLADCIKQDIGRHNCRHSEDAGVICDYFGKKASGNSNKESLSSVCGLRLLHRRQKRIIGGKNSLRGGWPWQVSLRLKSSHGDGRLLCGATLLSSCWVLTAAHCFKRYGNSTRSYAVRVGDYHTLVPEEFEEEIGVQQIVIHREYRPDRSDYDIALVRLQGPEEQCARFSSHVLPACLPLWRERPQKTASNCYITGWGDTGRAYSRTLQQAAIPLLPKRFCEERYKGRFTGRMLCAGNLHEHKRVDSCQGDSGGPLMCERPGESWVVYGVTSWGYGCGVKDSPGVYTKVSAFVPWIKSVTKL
Protocol: Assessment of the potency of compounds of examples 1-311 in inhibiting the enzymatic activity of human neurotrypsin was performed according to the method described in patent application WO 2006/1103261

Trypsin (hog trypsin) = target: T2, Trypsin (hog trypsin) (Sus scrofa, UniProt P00761); experiment: Determination of the IC50 for various proteases: trypsin; format: biochemical; conditions: Mean ± SD
T2 construct: Trypsin is hog trypsin (Sigma Aldrich); purchased Sigma Aldrich
T2 sequence (P00761 9-231): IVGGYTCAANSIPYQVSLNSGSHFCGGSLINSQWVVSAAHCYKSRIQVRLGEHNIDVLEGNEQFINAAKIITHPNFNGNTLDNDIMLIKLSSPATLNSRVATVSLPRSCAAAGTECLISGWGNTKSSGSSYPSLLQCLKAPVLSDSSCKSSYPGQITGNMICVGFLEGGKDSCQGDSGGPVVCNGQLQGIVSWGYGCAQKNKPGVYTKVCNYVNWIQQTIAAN
Protocol: (§5) A 6 mM solution of the test compound in DMSO was prepared. In a V-bottom micro plate the 6 mM compound solution was diluted 6 times in DMSO to obtain a concentration row with the following concentrations: 6 mM, 1.8 mM, 540 μM, 162 μM, 48.8 μM, 14.4 μM, and 4 μM. From this DMSO master plate 1:20 dilutions in 10 mM MOPS pH 8.3 were prepared to obtain solutions of 300, 90, 27, 8.1, 2.44, 0.72 and 0.22 μM in MOPS buffer and 5% DMSO.
(§6) 100 μl of this solution were pipetted into a flat bottom 96 well microplate and placed into a Tecan infinite 200 plate reader. Before measurement, 50 μl of protease solution and, subsequently 50 μl substrate solution were added by the machine. The liberation of free para nitroanilide was detected at 405 nm. The protease solution was freshly prepared by diluting to the desired concentration from a stock solution in 60 mM MOPS; 600 mM NaCl; 20 mM CaCl2; 10% DMSO; 0.4% PEG 6000 pH 8.3. The substrate solution was prepared by dissolving the solid substrate in an adequate amount of water to get the desired concentrations. The used protease and substrate solutions are given below:
(§7) All enzymes except trypsin were from human origin (American diagnostic). Trypsin is hog trypsin (Sigma Aldrich). Substrates were purchased from Chromogenix. […]

Thrombin = target: T3, Thrombin (Homo sapiens, UniProt P00734); experiment: Determination of the IC50 for various proteases: thrombin; format: biochemical; conditions: Mean ± SD
T3 construct: Thrombin; purchased American diagnostic
Protocol: as §5, §6, §7

Plasmin = target: T4, Plasmin (Homo sapiens, UniProt P00747); experiment: Determination of the IC50 for various proteases: plasmin; format: biochemical; conditions: Mean ± SD
T4 construct: Plasmin; purchased American diagnostic
T4 sequence (P00747 581-810 limits assumed): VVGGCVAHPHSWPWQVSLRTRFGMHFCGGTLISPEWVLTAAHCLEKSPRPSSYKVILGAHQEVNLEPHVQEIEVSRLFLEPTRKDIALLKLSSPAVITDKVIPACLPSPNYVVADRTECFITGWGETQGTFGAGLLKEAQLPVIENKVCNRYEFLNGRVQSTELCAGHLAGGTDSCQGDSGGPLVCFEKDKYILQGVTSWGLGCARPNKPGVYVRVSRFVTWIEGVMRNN
T4 sequence (P00747 97-580 partner limits assumed): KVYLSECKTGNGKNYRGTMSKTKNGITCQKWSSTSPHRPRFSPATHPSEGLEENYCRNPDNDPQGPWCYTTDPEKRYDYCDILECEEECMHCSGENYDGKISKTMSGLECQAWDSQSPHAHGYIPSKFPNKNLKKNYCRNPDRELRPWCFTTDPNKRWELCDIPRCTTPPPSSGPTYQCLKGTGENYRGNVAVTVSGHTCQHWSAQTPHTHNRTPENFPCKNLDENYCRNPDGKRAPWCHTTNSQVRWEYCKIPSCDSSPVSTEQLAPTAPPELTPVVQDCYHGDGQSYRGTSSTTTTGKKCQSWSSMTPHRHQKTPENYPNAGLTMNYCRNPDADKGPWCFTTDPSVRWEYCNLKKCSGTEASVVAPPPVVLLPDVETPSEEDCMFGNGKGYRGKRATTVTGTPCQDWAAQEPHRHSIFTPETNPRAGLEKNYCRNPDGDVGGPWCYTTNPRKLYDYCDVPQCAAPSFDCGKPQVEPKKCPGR
Protocol: as §5, §6, §7

Kallikrein = Kallikrein (Homo sapiens, UniProt P03952); experiment: Determination of the IC50 for various proteases: kallikrein; format: biochemical; conditions: Mean ± SD
Chain of Kallikrein (P03952 whole entry): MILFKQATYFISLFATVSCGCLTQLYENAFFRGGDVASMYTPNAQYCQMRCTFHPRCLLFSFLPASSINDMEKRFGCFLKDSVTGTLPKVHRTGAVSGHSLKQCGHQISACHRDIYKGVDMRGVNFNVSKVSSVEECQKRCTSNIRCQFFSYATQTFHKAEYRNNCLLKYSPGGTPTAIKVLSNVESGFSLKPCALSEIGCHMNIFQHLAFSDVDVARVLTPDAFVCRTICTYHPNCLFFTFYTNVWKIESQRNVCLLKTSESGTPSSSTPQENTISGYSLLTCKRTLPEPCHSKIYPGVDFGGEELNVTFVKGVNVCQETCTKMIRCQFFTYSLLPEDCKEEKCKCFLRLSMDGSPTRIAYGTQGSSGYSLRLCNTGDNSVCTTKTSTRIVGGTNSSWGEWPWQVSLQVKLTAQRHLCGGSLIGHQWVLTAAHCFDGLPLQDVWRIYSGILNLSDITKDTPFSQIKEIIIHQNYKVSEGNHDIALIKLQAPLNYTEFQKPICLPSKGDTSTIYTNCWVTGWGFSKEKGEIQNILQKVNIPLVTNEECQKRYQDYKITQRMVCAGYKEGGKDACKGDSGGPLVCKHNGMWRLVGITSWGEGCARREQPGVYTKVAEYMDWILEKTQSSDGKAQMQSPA
Protocol: as §5, §6, §7

tPA = target: T5, tPA (Homo sapiens, UniProt P00750); experiment: Determination of the IC50 for various proteases: tPA; format: biochemical; conditions: Mean ± SD
T5 construct: purchased American diagnostic
T5 sequence (P00750 36-562): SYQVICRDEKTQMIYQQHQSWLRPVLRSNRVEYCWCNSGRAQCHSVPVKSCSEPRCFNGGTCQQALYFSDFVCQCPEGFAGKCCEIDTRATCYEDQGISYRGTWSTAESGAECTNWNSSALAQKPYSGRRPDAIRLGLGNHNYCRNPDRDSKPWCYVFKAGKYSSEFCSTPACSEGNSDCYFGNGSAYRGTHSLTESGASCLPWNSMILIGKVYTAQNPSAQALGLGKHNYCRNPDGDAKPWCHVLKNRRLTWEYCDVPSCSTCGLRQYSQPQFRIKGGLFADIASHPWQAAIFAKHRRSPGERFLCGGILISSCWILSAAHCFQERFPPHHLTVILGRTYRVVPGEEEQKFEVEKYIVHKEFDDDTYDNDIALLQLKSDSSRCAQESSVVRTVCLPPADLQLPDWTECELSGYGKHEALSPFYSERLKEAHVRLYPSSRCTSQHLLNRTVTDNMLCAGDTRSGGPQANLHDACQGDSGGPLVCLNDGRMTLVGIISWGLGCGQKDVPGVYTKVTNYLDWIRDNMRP
Protocol: as §5, §6, §7

uPA = target: T6, uPA (Homo sapiens, UniProt P00749); experiment: Determination of the IC50 for various proteases: uPA; format: biochemical; conditions: Mean ± SD
T6 construct: purchased American diagnostic
Protocol: as §5, §6, §7

Factor Xa = target: T7, Factor Xa (Homo sapiens, UniProt P00742); experiment: Determination of the IC50 for various proteases: Factor Xa; format: biochemical; conditions: Mean ± SD
T7 construct: Factor Xa; purchased American diagnostic
T7 sequence (P00742 235-488 limits assumed): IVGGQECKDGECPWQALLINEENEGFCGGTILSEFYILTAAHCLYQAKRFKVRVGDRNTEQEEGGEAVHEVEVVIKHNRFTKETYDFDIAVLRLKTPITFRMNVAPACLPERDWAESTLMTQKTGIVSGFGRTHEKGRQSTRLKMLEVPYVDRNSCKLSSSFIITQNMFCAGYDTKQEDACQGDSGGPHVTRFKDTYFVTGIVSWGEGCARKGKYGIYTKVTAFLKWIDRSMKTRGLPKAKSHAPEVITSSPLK
T7 sequence (P00742 41-179 partner limits assumed): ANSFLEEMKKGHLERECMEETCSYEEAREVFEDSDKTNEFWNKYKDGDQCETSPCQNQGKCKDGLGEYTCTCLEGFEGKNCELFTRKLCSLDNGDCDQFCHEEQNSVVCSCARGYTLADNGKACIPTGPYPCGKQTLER
Protocol: as §5, §6, §7

[3] = human neurotrypsin, method of WO 2006/1103261, read-out: Neurotrypsin IC50

Compound: O=C(Nc1ccc(Cl)cc1)c1ccc(NC(=O)c2ccc(-c3nc4cc(Cl)c(Cl)cc4[nH]3)cc2)c(C(=O)O)c1 [Example 119, mono-lysine salt]
increase in weight loss compared to the vehicle control ([1]; adult mice): does not produce any increase in weight loss compared to the vehicle control
Weight loss ([1]; adult mice, post-treatment/pre-treatment weight): < 10%
Average weight loss (% of T = 0 weigth) ([1]; mice, weighed before first injection and 5 h after last, n=5): 5.52 % of T = 0 weigth
CAF levels Average (AU) ([2]; pooled mouse serum, western blot, post-treatment, 25 mg/kg i.p. x3, normalized to loading control, KO background subtracted): 0.38 AU
CAF levels Average (% of vehicle) ([2]; pooled mouse serum, western blot, post-treatment, 25 mg/kg i.p. x3, normalized to the vehicle level): 56.15 % of vehicle
CAF levels ([2]; serum, pooled samples, mice, 25 mg/kg active ingredient, three intraperitoneal injections, 5 h after last injection, mean ± standard deviation): 56.2%±29.0 % of vehicle control

Compound: O=C(Nc1ccc(Cl)cc1)c1ccc(NC(=O)c2ccc(-c3nc4cc(Cl)c(Cl)cc4[nH]3)cc2)c(C(=O)O)c1 [Example 119]
IC50 (human neurotrypsin; Mean ± SD, read-out: IC50 Neurotrypsin): 0.51 ± 0.16 µM
IC50 (human neurotrypsin; [3]): 0.4 µM
IC50 (Trypsin (hog trypsin)): > 150 µM
IC50 (Thrombin): 37.7 ± 25.2 µM
IC50 (Plasmin): 2400 ± 1600 nM
IC50 (Kallikrein): 27.1 ± 9.2 µM
IC50 (tPA): 47.1 ± 22.4 µM
IC50 (uPA): > 40 µM
IC50 (Factor Xa): 39.8 ± 33.3 µM

Compound: O=C(O)c1ccc(Nc2ccc(Cl)cc2)cc1NC(=O)c1sc2ccccc2c1Cl [Example 288, 2-(3-Chlorobenzo[b]thiophene-2-carboxamido)-4-(4-chlorophenyl-amino)benzoic acid]
IC50 (human neurotrypsin; [3]): 5.1 µM

Compound: CC(Nc1ccc(C(=O)O)c(NC(=O)c2sc3ccccc3c2Cl)c1)c1ccc(Cl)cc1 (stereo not drawn) [Example 290]
IC50 (human neurotrypsin; [3]): 4.1 µM

Compound: O=C(O)c1ccc(NC2CCCc3ccccc32)cc1NC(=O)c1sc2ccccc2c1Cl (stereo not drawn) [Example 291]
IC50 (human neurotrypsin; [3]): 4 µM

Compound: O=C(Nc1ccc(Sc2ccc(Cl)cc2)cc1C(=O)O)c1ccc(-c2ccc(Cl)cc2)s1 [Example 293]
IC50 (human neurotrypsin; [3]): 8.7 µM

Compound: O=C(O)c1ccc(CN2CC(c3ccc(Cl)cc3)OC2=O)cc1NC(=O)c1sc2ccccc2c1Cl (stereo not drawn) [Example 301]
IC50 (human neurotrypsin; [3]): 8.7 µM

Compound: N-(5-(5-Chloro-1,3-thiazol-2-ylcarbamoyl)-2-(2H-tetrazol-5-yl)phenyl)-5-phenyl-thiophene-2-carboxamide [Example 228]
IC50 (human neurotrypsin; [3]): 6.6 µM

Second part, the compound after the results:

IC50 (human neurotrypsin; [3]): 4.4 µM
Compound: O=C(O)COc1cc(C(=O)O)c(NC(=O)c2ccc(-c3nc4cc(Cl)c(Cl)cc4n3CC(=O)O)cc2)cc1C(=O)Nc1ccc(Cl)cc1 [Example 302, 5-(Carboxymethoxy)-2-(4-(1-(carboxymethyl)-5,6-dichloro-1H-benzo[d]imidazol-2-yl)benzamido)-4-(4-chlorophenylcarbamoyl)benzoic acid]

IC50 (human neurotrypsin; [3]): 5.5 µM
Compound: O=C(Nc1ccc(Cl)cc1)c1cc(NC(=O)c2sc3ccccc3c2Cl)c(C(=O)O)cc1O [Example 303]

IC50 (human neurotrypsin; [3]): 2.5 µM
Compound: O=C(O)COc1cc(C(=O)O)c(NC(=O)c2sc3ccccc3c2Cl)cc1C(=O)Nc1ccc(Cl)cc1 [Example 304]

IC50 (human neurotrypsin; [3]): 1.2 µM
Compound: COC(=O)c1cc(OCC(=O)O)c(C(=O)Nc2ccc(Cl)cc2)cc1NC(=O)c1ccc(-c2nc3cc(Cl)c(Cl)cc3n2C)cc1 [Example 305]

IC50 (human neurotrypsin; [3]): 0.5 µM
Compound: Cn1c(-c2ccc(C(=O)Nc3cc(C(=O)Nc4ccc(Cl)cc4)c(OCC(=O)O)cc3C(=O)O)cc2)nc2cc(Cl)c(Cl)cc21 [Example 306]

IC50 (human neurotrypsin; [3]): 0.5 µM
Compound: O=C(COc1ccc(NC(=O)c2ccc(-c3nc4cc(Cl)c(Cl)cc4[nH]3)cc2)c(C(=O)O)c1)Nc1ccc(Cl)cc1 [Example 311, 5-(4-Chlorophenylcarbamoylmethoxy)-2-(4-(5,6-dichloro-1H-benzo[d]imidazol-2-yl)benzamido)benzoic acid]
